{
  "source": "patent US11382907B2",
  "about": "“Methods and compositions for treating aging-associated impairments using CCR3-inhibitors” (Alkahest, Inc., priority 2017, dated 2022)",
  "key": {"[1]": {"system": "two-month-old C57Bl/6 mice treated with rmCCL11", "experiment": "Y-maze test in young mice given recombinant mouse CCL11", "type": "in vivo", "settings": "2-month-old mice; rmCCL11 i.p.; Compound 1 30 mg/kg p.o. b.i.d.", "procedure": "(§1) A large Y-maze test assesses short-term memory of the familiarity of a specific context. Mice are brought to the experimental room for at least 30 min of acclimation to the experimental room conditions (dim lighting) prior to testing. For the initial training trial, the mouse is placed at the end of one arm of a large Y-maze designated “start arm” (arm length: 15 inches). The third arm of the maze is blocked off, allowing the mouse to explore two of the three arms freely (“start arm” and “familiar arm”) for 5 min. Each arm contains spatial cues. One hour later, the mouse is placed back into the maze in the “start arm” and allowed to explore all three arms with the third arm unblocked (“novel arm”). Movements in and out of each arm are tracked using automated tracking software (CleverSys). Testing is performed under dim lighting, and the apparatus is cleaned with 70% ethanol between trials.\nTwo-month-old C57Bl/6 mice were dosed with either vehicle control or Compound 1 by oral gavage twice daily for 18 days. During the last week of treatment, mice were subjected to behavior testing prior to perfusion on the last day of treatment. All mice received 5 consecutive days of BrdU injection at 150 mg/kg IP immediately prior to treatment start. […]"}, "[2]": {"system": "three-month-old C57 mice treated with LPS", "experiment": "Open Field test (anxiety) in mice given daily LPS", "type": "in vivo", "settings": "3-month-old mice; daily LPS 0.5 mg/kg IP; 30 mg/kg PO BID, after 1 week", "procedure": "(§2) Open Field is used to evaluate general locomotor activity and exploratory behavior in a novel environment. Mice are brought to the experimental room for at least 30 min for acclimation to the experimental room conditions (dim lighting) prior to testing. The testing arena consists of a 50 cm×50 cm square arena. Mice are placed in the center of an arena and tracked for 15 minutes. Time spent in the peripheral and centers zones is analyzed, along with rearing behavior. 70% ethanol is used to clean all surfaces between trials.\n(§3) Three-month-old C57 mice were given daily doses of lipopolysaccharide (LPS) 0.5 mg/kg IP to induce inflammation and treated with Compound 1 for up to 4 weeks.\n(§4) Treatment Groups: • Treatment Group 1, Vehicle treatment: 3-month-old C57 mice (n=10) received daily IP injection of LPS for 7 weeks and twice daily (BID) oral gavage (PO) treatment of vehicle solution for up to 4 weeks. • Treatment Group 2, Vehicle treatment and Oxazolone treatment: 3-month-old C57 mice (n=10) received daily IP injection of LPS for 7 weeks and twice daily (BID) oral gavage (PO) treatment of vehicle solution for up to 4 weeks. • Treatment Group 3, Compound 1 treatment and Oxazolone treatment: 3-month-old C57 mice (n=9) received daily IP injection of LPS for 7 weeks and twice daily (BID) oral gavage (PO) treatment of Compound 1, 30 mg/kg, for up to 4 weeks."}, "[3]": {"system": "Iba1-positive microglia", "experiment": "IHC of Iba1-positive microglia in hippocampus of mice given daily LPS", "type": "in vivo, C57Bl/6 mice", "settings": "3-month-old mice, daily LPS IP 7 weeks, 30 mg/kg PO BID 4 weeks", "procedure": "(§5) For fluorescent microscopy, the following antibodies were used in the given concentrations: GFAP, 1:500, DAKO; Iba1, 1:1000, Wako; and BrdU, 1:500, AbCam. Antigen retrieval protocol was required for BrdU (2N HCl, 37 C, 30 min) prior to blocking. The appropriate fluorescent secondary antibodies were applied the next day at a concentration of 1:300 for one hour at room temperature. Prolong Gold Mounting Media was used to coverslip the slides. Images were acquired on a light microscope at 5× magnification.\nas §3, §4"}, "[4]": {"system": "GFAP-positive astroglia", "experiment": "IHC of GFAP-positive astroglia in hippocampus of mice given daily LPS", "type": "in vivo, C57Bl/6 mice", "settings": "3-month-old mice, daily LPS IP 7 weeks, 30 mg/kg PO BID 4 weeks", "procedure": "as §5, §3, §4"}, "[5]": {"system": "three-month-old C57 mice treated with LPS", "experiment": "Y maze test in mice given daily LPS", "type": "in vivo", "settings": "3-month-old mice; daily LPS 0.5 mg/kg IP; 30 mg/kg PO BID, after 3 weeks", "procedure": "as §1\nThree-month-old C57 mice were given daily doses of lipopolysaccharide (LPS) 0.5 mg/kg IP to induce inflammation and treated with Compound 1 for up to 4 weeks. […]"}, "[6]": {"system": "twenty-four-month-old C57 mice", "experiment": "Rotarod test for motor coordination in aged mice", "type": "in vivo", "settings": "4 weeks continuous infusion by osmotic pump", "procedure": "The mice were trained in the rotarod for 3 trials up to 100 seconds each, the rotarod being a test of motor coordination. Success or failure was recorded on the last trial, with success defined by a latency to fall of >90 seconds. A binomial test was conducted to compare success rates between control and compound-treated mice.\nTwenty-four-month-old C57 mice were treated for 4 weeks with continuous infusion of Compound 1 or vehicle by Alzet osmotic pump, which were implanted to continuously deliver the two treatments.\nTreatment Groups: • Treatment Group 1, Old Controls: Aged C57BL/6 mice (n=15), aged 23 months, received infusion of vehicle by Alzet mini-pump, model 2002 (0.5 uL/hr), for four weeks with one replacement. • Treatment Group 2, Compound 1 (dose 2) in Old: Aged C57BL/6 mice (n=15), aged 23 months, received infusion of ˜50 mg/ml Compound 1 by Alzet mini-pump, model 2002 (0.5 uL/hr), for four weeks with one replacement."}, "[7]": {"system": "aged C57Bl/6 mice", "experiment": "Open Field test in aged mice", "type": "in vivo", "settings": "23-month-old mice; 30 mg/kg SQ BID 21 days, tested three weeks later", "procedure": "as §2\n23-month-old C57Bl/6 mice were dosed with either vehicle control or Compound 1 subcutaneously twice daily for 21 days. Three weeks later, mice were subjected to behavior testing, and sacrificed the day following the last behavior test."}},
  "note": "Entries after “also recorded” stand apart in the source; their conditions may differ.",
  "data": [
    {"smiles": "Cc1cc(C(=O)N(C)C)cc(NC(=O)[C@H]2CCC(=O)N2C2CCN(Cc3ccc(Cl)c(C)c3)CC2)n1", "note": "[Compound 1]", "values": [
      {"measurement": "memory in the Y-maze", "setting": "[1]", "value": "no longer significantly different from control mice"},
      {"measurement": "anxiety in the Open Field", "setting": "[2]", "value": "strongly decreased the increased anxiety; also recorded: decreased the LPS-induced anxiety"},
      {"measurement": "Iba1+ immunoreactivity (total microglia) in hippocampus", "setting": "[3]", "value": "dramatically decreased Iba1+ immunoreactivity; also recorded: trend towards decrease"},
      {"measurement": "GFAP+ immunoreactivity (total astrocytes) in hippocampus", "setting": "[4]", "value": "dramatically decreased GFAP+ immunoreactivity; also recorded: trend towards decrease"},
      {"measurement": "Y maze preference for the novel arm", "setting": "[5]", "value": "showed a significant preference for the novel arm"},
      {"measurement": "proportion of mice able to stay on the rod for longer than 90 seconds", "setting": "[6]; control 20%", "value": 47, "unit": "%"},
      {"measurement": "Rotarod success versus vehicle (binomial test)", "setting": "[6]; success = latency to fall >90 seconds", "value": "succeeded more than vehicle-treated mice"},
      {"measurement": "Open Field distance travelled", "setting": "[7]", "value": "strong trends towards improvement"},
      {"measurement": "Open Field velocity", "setting": "[7]", "value": "strong trends towards improvement"}
    ]}
  ]
}
